According to patent US6034134A, “1-Amino-alkylcyclohexane NMDA receptor antagonists” (Merz + Co. GmbH & Co., priority 1998, dated 2000):
Like-named read-outs stand apart in the source and are kept apart here.

Legend:
NMDA receptor = assay: [3H]-(+)-MK-801 binding to rat cortical membranes; conditions: for Ki: read-out: MK-801 Ki, Table 9, Cheng-Prusoff with Kd for MK-801 of […]; for IC50: read-out: [3H] MK-801 IC50, Table 7, footnote calls the values Ki
Experimental: Male Sprague-Dawley rats (200-250 g) were decapitated and their brains were removed rapidly. The cortex was dissected and homogenized in 20 volumes of ice-cold 0.32 M sucrose using a glass-Teflon homogenizer. The homogenate was centrifuged at 1000 ×g for 10 minutes. The pellet was discarded and the supernatant centrifuged at 20,000 ×g for 20 minutes. The resulting pellet was re-suspended in 20 volumes of distilled water and centrifuged for 20 minutes at 8000 ×g. Then the supernatant and the buffy coat were centrifuged three times (48,000 ×g for 20 minutes) in the presence of 50 mM Tris-HCl, pH 8.0. All centrifugation steps were carried out at 4° C. After resuspension in 5 volumes of 50 mM Tris-HCl, pH 8.0 the membrane suspension was frozen rapidly at -80° C. On the day of assay the membranes were thawed and washed four times by resuspension in 50 mM Tris-HCl, pH 8.0 and centrifugation at 48,000 ×g for 20 minutes. The final pellet was suspended in assay buffer. The amount of protein in the final membrane preparation was determined according to the method of Lowry with some modifications. The final protein concentration used for our studies was between 250-500 μg/ml.
Membranes were re-suspended and incubated in 50 mM Tris-HCl, pH 8.0. […] Incubations were terminated using a Millipore filter system. The samples were rinsed three times with 2.5 ml ice cold assay buffer over glass fiber filters obtained from Schleicher & Schuell under a constant vacuum. Filtration was performed as rapidly as possible. Following separation and rinse, the filters were placed into scintillation liquid (5 ml; Ultima Gold) and radio activity retained on the filters was determined with a conventional liquid scintillation counter (Hewlett Packard, Liquid Scintillation Analyser).
(§1) IC50 s in patch clamp, excitotoxicity, and binding studies were calculated according to the four parameter logistic equation using the Grafit computer program (Erithacus Software, England). Ki value for binding studies were then determined according to Cheng and Prusoff. Binding values presented are means±SEM of 3-5 determinations (each performed in duplicate). […] Pearson product moment correlation analysis (Sigma Stat, Jandel Scientific) was used to compare in vitro potencies and in vivo anticonvulsant activity.

cortical neurones = assay: Excitotoxicity: glutamate toxicity in cultured cortical neurones (MTT); type: cell-based, rat; conditions: Rattus norvegicus, Cortical neurone
Experimental: Cortical neurones were obtained from cerebral cortices of 17/18 day old fetal rats (Wistar), in general following the dissociation procedure described by. After short trypsinization and gentle trituration with fire-polished Pasteur pipettes, the cell suspension was washed by centrifugation. Cells were suspended in serum-free Neurobasal medium with B27 supplement (GIBCO) before plating onto poly-L-lysine (Sigma; 0.2 mg/ml, 20 h, 4° C.) and laminin (Sigma; 2 μg/ml, 1 h, 37° C.)-coated 96-well plates (Falcon, Primaria) at a density of 5×10^4 cells/well. Cortical neurones were maintained at 37° C. in humidified 10% CO2 /90% air. […] The medium was changed first after 4 days in vitro and then every 4 days by replacing 2/3 of the medium with astrocyte-conditioned medium. Cortical neurones between day 12 and 14 in culture were used for the experiments.
New-born rat astrocytes were isolated non-enzymatically according to the method of [24]. Briefly, both hemispheres were dissected from 2-day-old rats, passed through an 80 μm gauze, and triturated with Pasteur pipettes. Cell suspension was made in Dulbecco's modified essential medium (DMEM, Gibco) supplemented with 10% fetal calf serum (FCS, Hyclone), 2 mM glutamine (Gibco) and 50 μg/ml gentamycin and transferred into untreated, plastic culture flasks (Corning; […]). Two days after plating the flasks were shaken for 10 minutes on a rotary platform (150 U/min) to remove microglial cells. The cultures were grown to confluency within 14 days, and the culture medium was changed twice weekly. Thereafter, the glial monolayers were extensively washed with serum-free Neurobasal medium (Gibco) to remove the serum. Flasks were then shaken several times to remove oligodendrocytes and neurones. To obtain conditioned medium from primary astrocytes, the cultures were incubated with fresh Neurobasal medium supplemented with B27 andglutamine. Every 2-3 days the conditioned medium was collected and replaced by fresh medium up to 4 times.
Exposure to EAA was performed in serum-free Neurobasal medium containing 100 μM glutamate and the drug to be tested. After 20 h of incubation, the cytotoxic effect was morphologically examined under a phase contrast microscope and biochemically quantified by measuring cell viability with the MTT test (Promega). This calorimetric assay measures the reduction of a tetrazolium component (MTT) into an insoluble formazan product by the mitochondria of living cells. After incubation of the cortical neurones with the dye solution for approximately 1-4 hours, a solubilization solution was added to lyse the cells and solubilize the colored product (incubation overnight at 37° C., 10% CO2, 90% RH). These samples were then read using an Elisa plate reader (Thermomax, MWG Biotech) at a wavelength of 570 nm. The amount of color produced was directly proportional to the number of viable cells.
as §1

[1] = Maximal electroshock (MES)-induced convulsions in mice; type: in vivo; conditions: for ED50: Mus musculus, ip, 0.5 h, read-out: MES ED50
Experimental: (§2) NMR female mice (18-28 g) housed 5 per cage were used for the maximal electroshock (MES) and motor impairment tests. […] All compounds were dissolved in 0.9% saline.
(§3) The MES test was performed together with tests for myorelaxant action (traction reflex) and motor coordination (rotarod). For the traction reflex test mice were placed with their forepaws on a horizontal rod and were required to place all 4 paws on the wire within 10 seconds. To test ataxia (motor coordination) mice were placed on rotarod (5 rpm) and were required to remain on the rod for 1 minute. […] These tests were followed by MES (100 Hz, 0.5 second shock duration, 50 mA shock intensity, 0.9 ms impulse duration, Ugo Basile) applied through corneal electrodes. The presence of tonic convulsions was scored (tonic extension of hind paws with minimum angle to the body of 90°). The aim was to obtain ED50 s for all parameters scored (anticonvulsive activity and motor side effects) with use of the Litchfield Wilcoxon test for quantal dose responses. Division of the ED50 for side effects (ataxia or myorelaxation) by the ED50 for antagonism of electroshock convulsions was used as a therapeutic index (TI). […]

[2] = Traction reflex test (myorelaxant action) in mice, therapeutic index versus MES; type: in vivo; conditions: ED50 for traction reflex impairment divided by ED50 for MES; 30 min
Experimental: as §2, §3

[3] = Experimental: All animals were kept with water and food ad libitum under a 12 hour light-dark cycle (light on at 6 a.m.) and at a controlled temperature (20±0.5° C.). All e experiments were performed between 10 a.m. and 5 p.m. Tested agents were injected 30 min. i.p. before the induction of convulsions if not stated otherwise (see below). All compounds were dissolved in 0.9% saline.
[4] = Table 7, 100 μM glutamate, 20 h, read-out: Glut. Tox. IC50
[5] = Table 9, 100 μM glutamate, read-out: Glut Tox IC50
[6] = Table 7, mice, i.p., 30 min before
[7] = Table 8, mice, i.p., 95% confidence limits in parentheses

| Structure (SMILES) | Ki (NMDA receptor) [µM] | IC50 (NMDA receptor) [µM] | IC50 (cortical neurones; [4]) [µM] | IC50 (cortical neurones; [5]) [µM] | ED50 [1, 6] [mg/kg] | ED50 [1, 7] [mg/kg] | TI Tract [2] | Min Lethality ([3]; mouse, in vivo, ip) [mg/kg] | Min Lethality ([3]; i.p., minimal lethal dose) [mg/kg] | IC50 (cortical neurones; 20 h, read-out: Glut. Tox. IC50) [µM] | IC50 (cortical neurones; read-out: Glut Tox IC50) [µM] | ED50 [1] [mg/kg] | MES ED50 ([1]; Table 8, mice, i.p., 95% confidence limits in parentheses, 30 min) |
| --- | --- | --- | --- | --- | --- | --- | --- | --- | --- | --- | --- | --- | --- |
| C[C@@H]1CC(C)(C)C[C@@](C)(N)C1 (relative stereo) [Mrz 2/607] | 7.74 | 8.2 | 10.1 | 10.1 | 22.9 | 22.9 | 1.3 | 50 | – | – | – | – | – |
| CCC[C@@]1(C)C[C@H](C)C[C@@](C)(N)C1 (relative stereo) [Mrz 2/618] | 24 | 32.7 | 17.6 | 17.6 | 24 | 24 | 1.2 | > 50 | – | – | – | – | – |
| CCC[C@]1(C)C[C@@H](C)C[C@@](C)(N)C1 (relative stereo) [Mrz 2/619] | 57.8 | 72.1 | 30.9 | 30.9 | 44.6 | 44.6 | 1.0 | > 50 | – | – | – | – | – |
| CC[C@@]1(C)C[C@H](C)C[C@@](C)(N)C1 (relative stereo) [Mrz 2/622] | 13.3 | 15 | 19.3 | 19.3 | 21 | 21 | 1.1 | 50 | – | – | – | – | – |
| CC[C@]1(C)C[C@@H](C)C[C@@](C)(N)C1 (relative stereo) [Mrz 2/624] | 15.1 | 15.4 | 2.7 | 2.7 | 47.2 | 47.2 | 0.9 | 100 | – | – | – | – | – |
| C[C@@H]1CCC[C@@](C)(N)C1 (relative stereo) [Mrz 2/625] | 52.6 | 46.8 | 39.4 | 39.4 | 130 | 130 | 0.5 | > 70 | – | – | – | – | – |
| CCC[C@@H]1CCC[C@@](C)(N)C1 (relative stereo) [Mrz 2/627] | 71 | 70.3 | 26.6 | 26.6 | 43.9 | 43.9 | 0.8 | 60 | – | – | – | – | – |
| CC[C@H]1CCC[C@@](C)(N)C1 (relative stereo) [Mrz 2/630] | 49.1 | 44.3 | > 100 | > 100 | > 30 | > 30 | – | – | > 30 | – | – | – | – |
| C[C@H]1CCC[C@@](C)(N)C1 (relative stereo) [Mrz 2/631] | 65.3 | 69.7 | > 100 | > 100 | 30 | 30 | – | – | > 30 | – | – | – | – |
| CCC[C@@H]1CC(C)(C)C[C@](C)(N)C1 (relative stereo) [Mrz 2/634] | 13.4 | 15.5 | 19 | 19 | > 30 | > 30 | – | – | > 30 | – | – | – | – |
| CCCC1(C)CCCC(C)(N)C1 (centres unmarked) [Mrz 2/617] | 38 | 51.8 | > 70 | > 70 | 54.9 | 54.9 | – | > 50 | – | – | – | – | – |
| CC1(N)CCCCC1 [Mrz 2/641] | 143 | 184 | > 100 | > 100 | > 50 | > 50 | – | – | > 50 | – | – | – | – |
| CN(C)C1(C)CC(C)(C)CC(C)(C)C1 [Mrz 2/642] | 12.7 | 10.2 | – | – | – | – | 4.1 | – | – | 29.3 | 29.3 | 8.04 | 8.04 (5.1-12.7) mg/kg |
| CC(C)(N)CC1CC(C)(C)CC(C)(C)C1 [Mrz 2/645] | 60.2 | 85.1 | > 100 | > 100 | 65.6 | 65.6 | – | – | – | – | – | – | – |
